From the supplement of paper PMC10331698
± gives the standard deviation of the averaged measurements.

Tests used:
Experiment in all cases: level (log10 ratio to DMSO vehicle control); higher = higher biomarker level / cell amount than vehicle control
Settings in all cases: in DMSO
[1] = compound: O=C(O)C(F)(F)C(F)(F)C(F)(F)C(F)(F)C(F)(F)F [Perfluorohexanoic acid]
Procedure: (§1)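 BioMAP Diversity Plus panel of 12 human primary cell co-culture systems (3C, 4H, LPS, SAg, BT, BF4T, BE3C, CASM3C, HDF3CGF, KF3CT, MyoF, Mphg). Compounds were added 1 h before stimulation and left for 24 h (MyoF 48 h; BT 72 h for soluble read-outs or 6 d for IgG). Biomarkers were read by ELISA, cytotoxicity by SRB, PBMC viability and proliferation by Alamar Blue. Each well value was divided by the mean of 8 DMSO control wells on the same plate and log10 transformed; duplicate blinded samples were tested at 4 concentrations.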

[2] = compound: O=C(O)C(F)(F)OC(F)(F)C(F)(F)OC(F)(F)C(F)(F)C(F)(F)C(F)(F)F [Perfluoro-3,6-dioxadecanoic acid]
Procedure: as §1

[3] = compound: CNS(=O)(=O)C(F)(F)C(F)(F)C(F)(F)C(F)(F)C(F)(F)C(F)(F)C(F)(F)C(F)(F)F [N-Methylperfluorooctanesulfonamide]
Procedure: as §1

[4] = compound: OCC(F)(F)C(F)(F)C(F)(F)F [1H,1H-Heptafluorobutanol]
Procedure: as §1

[5] = compound: O=S(=O)(O)C(F)(F)C(F)(F)C(F)(F)C(F)(F)C(F)(F)C(F)(F)C(F)(F)C(F)(F)F [Potassium perfluorooctanesulfonate]
Procedure: as §1

[6] = compound: O=C(O)C(F)(F)C(F)(F)C(F)(F)C(F)(F)C(F)(F)C(F)(F)C(F)(F)C(F)(F)Cl [9-Chloro-perfluorononanoic acid]
Procedure: as §1

[7] = compound: O=P(O)(O)CCC(F)(F)C(F)(F)C(F)(F)C(F)(F)C(F)(F)C(F)(F)C(F)(F)C(F)(F)F [((Perfluorooctyl)ethyl)phosphonic acid]
Procedure: as §1

| Test System | level (log10) ([1]; 6700 nM) | level (log10) ([1]; 20000 nM) | level (log10) ([1]; 60000 nM) | level (log10) ([2]; 6700 nM) | level (log10) ([2]; 20000 nM) | level (log10) ([2]; 60000 nM) | level (log10) ([3]; 6700 nM) | level (log10) ([3]; 20000 nM) | level (log10) ([3]; 60000 nM) | level (log10) ([4]; 6700 nM) | level (log10) ([4]; 20000 nM) | level (log10) ([4]; 60000 nM) | level (log10) ([5]; 6700 nM) | level (log10) ([5]; 20000 nM) | level (log10) ([5]; 60000 nM) | level (log10) ([6]; 6700 nM) | level (log10) ([6]; 20000 nM) | level (log10) ([7]; 6700 nM) | level (log10) ([7]; 20000 nM) | level (log10) ([7]; 60000 nM) |
| --- | --- | --- | --- | --- | --- | --- | --- | --- | --- | --- | --- | --- | --- | --- | --- | --- | --- | --- | --- | --- |
| MyoF:CD106/VCAM-1 | 0.002 ± 0.0057 | 0.002 ± 0.0071 | -0.0095 ± 0.013 | -0.0055 ± 0.00071 | -0.0285 ± 0.026 | -0.045 ± 0.021 | 0.0065 ± 0.0078 | -0.0035 ± 0.016 | -0.0155 ± 0.012 | 0.0025 ± 0.022 | 0.0025 ± 0.011 | 0.008 ± 0.0014 | 0.002 ± 0.027 | 0.0045 ± 0.029 | 0.0015 ± 0.019 | -0.008 ± 0.025 | -0.101 ± 0.023 | -0.013 ± 0.027 | -0.0105 ± 0.015 | -0.079 ± 0.03 |
| MyoF:CXCL8/IL-8 | -0.0015 ± 0.016 | -0.0075 ± 0.026 | -0.015 ± 0.05 | 0.011 ± 0.011 | 0.0335 ± 0.013 | 0.0145 ± 0.0021 | -0.0645 ± 0.056 | -0.0895 ± 0.049 | -0.163 ± 0.037 | -0.0145 ± 0.033 | 0.016 ± 0.02 | 0.008 ± 0.0057 | -0.006 ± 0.023 | -0.0455 ± 0.023 | -0.0385 ± 0.0035 | 0.0025 ± 0.015 | -0.06 ± 0.0057 | 0.0105 ± 0.026 | 0.025 ± 0.011 | 0.038 ± 0.0028 |
| MyoF:Collagen I | -0.01 ± 0.0057 | -0.0095 ± 0.0092 | -0.0025 ± 0.011 | -0.026 ± 0.025 | -0.0525 ± 0.0021 | -0.19 ± 0.011 | -0.019 ± 0.0071 | -0.0015 ± 0.023 | 0.0265 ± 0.026 | -0.01 ± 0.024 | -0.0065 ± 0.022 | -0.0005 ± 0.013 | -0.0145 ± 0.023 | -0.0095 ± 0.013 | 0.0075 ± 0.021 | -0.0135 ± 0.005 | -0.29 ± 0.019 | -0.021 ± 0.0014 | -0.014 ± 0.0057 | -0.009 ± 0.035 |
| MyoF:Collagen III | 0.0075 ± 0.012 | 0.003 ± 0.02 | 0.0105 ± 0.0092 | -0.024 ± 0.0057 | -0.0445 ± 0.0035 | -0.317 ± 0.014 | -0.0185 ± 0.016 | -0.007 ± 0.018 | -0.0175 ± 0.005 | 0.0065 ± 0.0035 | -0.0065 ± 0.005 | -0.0065 ± 0.0064 | -0.0275 ± 0.018 | -0.028 ± 0.031 | -0.0365 ± 0.025 | -0.033 ± 0.027 | -0.498 ± 0.0085 | -0.013 ± 0.014 | -0.013 ± 0.017 | -0.073 ± 0.05 |
| MyoF:Collagen IV | 0.0245 ± 0.0064 | 0.0165 ± 0.0064 | 0.0345 ± 0.037 | 0.0055 ± 0.013 | 0.0345 ± 0.019 | 0.235 ± 0.011 | 0.228 ± 0.022 | 0.247 ± 0.024 | 0.273 ± 0.028 | -0.0305 ± 0.025 | -0.037 ± 0.033 | -0.029 ± 0.0071 | 0.024 ± 0.017 | 0.0125 ± 0.022 | 0.0175 ± 0.05 | 0.024 ± 0.0071 | 0.264 ± 0.031 | -0.0005 ± 0.013 | 0.012 ± 0.025 | -0.01 ± 0.057 |
| MyoF:Decorin | -0.0215 ± 0.015 | 0.0005 ± 0.023 | 0.024 ± 0.013 | 0.0005 ± 0.0021 | 0.023 ± 0.014 | -0.021 ± 0.027 | 0.0105 ± 0.012 | 0.005 ± 0.0085 | -0.016 ± 0.0085 | 0.0055 ± 0.0064 | 0.013 ± 0.016 | 0.02 ± 0.03 | 0.0305 ± 0.019 | 0.0305 ± 0.013 | 0.0565 ± 0.013 | 0.012 ± 0.0014 | -0.0045 ± 0.05 | 0.0185 ± 0.00071 | 0.028 ± 0.0099 | 0.0305 ± 0.046 |
| MyoF:MMP-1 | -0.0115 ± 0.0035 | -0.0055 ± 0.019 | 0.0235 ± 0.025 | -0.003 ± 0.0085 | -0.03 ± 0.024 | 0.0505 ± 0.0064 | -0.036 ± 0.013 | -0.0325 ± 0.018 | 0.008 ± 0.02 | -0.031 ± 0.0057 | -0.019 ± 0.011 | 0.012 ± 0.081 | -0.04 ± 0.021 | -0.047 ± 0.031 | 0.0305 ± 0.044 | -0.028 ± 0.03 | -0.0585 ± 0.0064 | -0.036 ± 0.0085 | 0.007 ± 0.0085 | 0.0865 ± 0.04 |
| MyoF:PAI-I | 0.0025 ± 0.005 | 0.002 ± 0.0028 | 0.009 | 0.001 ± 0.0014 | -0.0005 ± 0.0092 | -0.015 ± 0.0057 | 0.0005 ± 0.022 | -0.0145 ± 0.012 | 0.0255 ± 0.0092 | 0.0065 ± 0.0035 | 0.002 ± 0.0071 | -0.001 | 0.003 ± 0.025 | -0.006 ± 0.0014 | -0.0065 ± 0.0064 | -0.0065 ± 0.0078 | -0.0185 ± 0.011 | -0.0215 ± 0.0092 | -0.0075 ± 0.0064 | -0.0285 ± 0.035 |
| MyoF:SRB | 0.009 ± 0.0014 | 0.008 ± 0.0085 | 0.007 ± 0.0057 | 0 | -0.002 | -0.0515 ± 0.0092 | -0.005 ± 0.0099 | -0.0085 ± 0.012 | -0.0065 ± 0.022 | 0.0015 ± 0.00071 | -0.004 ± 0.0028 | -0.004 ± 0.0057 | -0.001 ± 0.011 | -0.0085 ± 0.0035 | -0.0145 ± 0.016 | -0.004 | -0.0605 ± 0.005 | 0.002 ± 0.0042 | 0.0025 ± 0.0064 | 0.004 |
| MyoF:TIMP-1 | 0.0085 ± 0.0021 | -0.006 ± 0.0042 | 0.0245 ± 0.0064 | 0.044 ± 0.03 | 0.174 ± 0.031 | 0.164 ± 0.0014 | -0.0435 ± 0.00071 | -0.049 ± 0.034 | -0.0415 ± 0.005 | 0.0115 ± 0.028 | 0.014 ± 0.035 | 0.025 ± 0.03 | 0.069 ± 0.02 | 0.0605 ± 0.03 | 0.111 ± 0.0021 | -0.0445 ± 0.063 | -0.006 ± 0.057 | 0.0415 ± 0.0078 | 0.0765 ± 0.0078 | 0.0715 ± 0.026 |
| MyoF:alpha-SM Actin | -0.021 ± 0.016 | 0.011 ± 0.0099 | 0.013 ± 0.037 | -0.0155 ± 0.039 | -0.0235 ± 0.018 | -0.05 ± 0.014 | -0.021 ± 0.068 | -0.008 ± 0.042 | 0.024 ± 0.059 | 0.0105 ± 0.0064 | -0.0045 ± 0.0078 | -0.004 ± 0.02 | -0.0215 ± 0.079 | -0.027 ± 0.075 | -0.0175 ± 0.066 | -0.009 ± 0.028 | -0.022 ± 0.013 | 0.0005 ± 0.046 | -0.001 ± 0.038 | 0.004 ± 0.031 |
| MyoF:bFGF | 0.0005 ± 0.005 | -0.0105 ± 0.019 | 0.0005 ± 0.021 | 0.013 ± 0.02 | 0.003 ± 0.0057 | 0.02 ± 0.011 | 0 ± 0.014 | -0.0085 ± 0.033 | 0.005 ± 0.033 | -0.003 ± 0.0042 | 0.0045 ± 0.0078 | 0.01 ± 0.017 | -0.0105 ± 0.025 | -0.0195 ± 0.023 | -0.019 ± 0.028 | -0.003 ± 0.023 | 0.0085 ± 0.011 | -0.0245 ± 0.018 | -0.024 ± 0.018 | -0.0585 ± 0.037 |
| lMphg:CCL2/MCP-1 | -0.0065 ± 0.028 | -0.021 ± 0.0099 | -0.014 ± 0.041 | -0.024 ± 0.037 | -0.0225 ± 0.023 | -0.0435 ± 0.0092 | -0.034 ± 0.0099 | -0.061 ± 0.033 | -0.0465 ± 0.04 | -0.01 ± 0.0042 | -0.0075 ± 0.015 | -0.0295 ± 0.012 | -0.0275 ± 0.018 | -0.013 ± 0.047 | -0.0155 ± 0.026 | 0.008 ± 0.047 | 0.0025 ± 0.015 | -0.0325 ± 0.0092 | -0.059 ± 0.024 | -0.039 ± 0.04 |
| lMphg:CCL3/MIP-1alpha | 0.006 | -0.009 ± 0.011 | 0.0025 ± 0.011 | -0.022 ± 0.064 | -0.0215 ± 0.049 | -0.0545 ± 0.054 | -0.023 ± 0.0014 | 0.0105 ± 0.029 | 0.034 ± 0.033 | 0.0015 ± 0.019 | -0.003 ± 0.037 | -0.0035 ± 0.0021 | -0.0105 ± 0.0035 | -0.0255 ± 0.0092 | -0.016 ± 0.02 | 0.0205 ± 0.029 | 0.0045 ± 0.046 | -0.0425 ± 0.026 | -0.0475 ± 0.0021 | -0.039 ± 0.0085 |
| lMphg:CD40 | 0.0105 ± 0.0078 | 0.016 ± 0.02 | -0.008 ± 0.0028 | 0.002 ± 0.047 | -0.0175 ± 0.035 | -0.102 ± 0.023 | -0.054 ± 0.042 | -0.0365 ± 0.021 | 0.0255 ± 0.063 | 0.0045 ± 0.025 | -0.0125 ± 0.059 | -0.0105 ± 0.029 | -0.0245 ± 0.0035 | -0.0125 ± 0.0092 | 0.002 ± 0.017 | -0.0165 ± 0.0064 | -0.0155 ± 0.005 | -0.015 ± 0.017 | -0.065 ± 0.017 | -0.037 ± 0.021 |
